Test results as given in US20100286028A1, “USE OF A PEPTIDE AS A THERAPEUTIC AGENT” (priority 2007, published 2010).
No end group written: not given here.

Tests used:
HIV-1IIIB = assay: HIV-1 antiviral assay in CEM-SS cells; details: peptides 10 micrograms per ml; CEM-SS cells plus HIV-1IIIB; MTS readout 6 days post-infection
HCMV strain AD169 = assay: HCMV plaque formation assay in MRC-5 cells; details: peptides 10 micrograms per ml, 7-10 days
murine spleen cells = assay: Th1/Th2 cytokine profiling assay; format: cell-based, Balb/c mice; details: 10 micrograms per ml, Ovalbumin-restimulated spleen cells, 72 hours
Description: The Balb/c mice (originated in 1923, it is a popular strain and is used in many different research disciplines. Also classified as an inbred from the production of 20 or more successive brother-sister matings, the Balb/c mouse is albino and small in size) were immunized on Days 1, 15, and 29 with Ovalbumin (Ovalbumin is the main protein found in egg white, commonly used to stimulate an immunological reaction in test animals) in PBS (5 micrograms/injection). On day 50, spleens of the mice were harvested (3 weeks after last boost with Ovalbumin). […] Thereafter, additional Ovalbumin was added to the cells at 10 micrograms/ml for in vitro restimulation of the cells. 72 hours later, cell supernatants were harvested and assayed using the Becton Dickinson Mouse Th1/Th2 Cytokine CBA Kit. This kit can be used to measure Interleukin-2 (IL-2), Interleukin-4 (IL-4), Interleukin-5 (IL-5), Interferon-γ (IFN-γ), and Tumor Necrosis Factor-a (TNF-a) protein levels in a single sample.

Streptococcus pneumoniae = Streptococcus pneumoniae assay; format: cell-based; details: 10 micrograms per ml; 5x10^5 CFU/mL; read visually; combination 0.95 mole peptide 1 and 1.05 mole peptide 2 and all other molar ratios from 1:100 to 100:1
[1] = test system: Primary Human endothelial cells (HUVEC); assay: Endothelial cell migration assay; format: cell-based; details: 10 micrograms per ml, 22 hours, combination peptide 1:peptide 2 1.10 mole:0.90 mole
[2] = test system: hepatitis B virus (HBV) ayw strain; assay: HBV experimental assay system (HepG2-2.2.15, TaqMan PCR of secreted HBV DNA); format: cell-based; details: 10 micrograms per ml, six days, HBV DNA by TaqMan PCR, combination 0.95 mole peptide 1 and 1.05 mole peptide 2
HUVEC = assay: Endothelial tube formation assay; format: cell-based, human; details: 10 micrograms per ml, 20 hours, average tubule length, combination peptide 1:peptide 2 1.10 mole:0.90 mole
Description: Positive control was vehicle only.

[3] = combination 0.95 mole peptide 1 and 1.05 mole peptide 2

Row | Compound | inhibition of HIV-1 activity on tested T-cells (HIV-1IIIB) | inhibition of HCMV plaque formation as compared to the virus control experiment (HCMV strain AD169) | production of IL-4 in murine spleen cells, suppressed by (murine spleen cells) [%] | change of the production of IL-5 in murine spleen cells (murine spleen cells; [3]) | production of IFN-γ in murine spleen cells, induced by (murine spleen cells; [3]) | production of IL-2 in murine spleen cells, induced by (murine spleen cells; [3]) | production of TNF-alpha in murine spleen cells, induced by (murine spleen cells; [3]) [%] | inhibition of the growth of Streptococcus pneumoniae (Streptococcus pneumoniae) [%] | inhibition of the migration of human endothelial cells [1] [%] | inhibition of HBV replication as compared to the virus control infection [2] [%] | increase of the tube formation of human endothelial cells (HUVEC) [%] | production of IL-4 in murine spleen cells, induced by (murine spleen cells; [3]) [%]
1 | Cc1cn([C@H]2C[C@H](N=[N+]=[N-])[C@@H](CO)O2)c(=O)[nH]c1=O [AZT] | expected levels of antiviral activity | – | – | – | – | – | – | – | – | – | – | –
2 | Nc1nc(O)c2ncn(COC(CO)CO)c2n1 [Ganciclovir, reference compound] | – | expected levels of antiviral activity | – | – | – | – | – | – | – | – | – | –
3 | CC(C)(C)NC(=O)[C@@H]1CN(Cc2cccnc2)CCN1C[C@@H](O)C[C@@H](Cc1ccccc1)C(=O)N[C@H]1c2ccccc2C[C@H]1O [indinavir] | expected levels of antiviral activity | – | – | – | – | – | – | – | – | – | – | –
4 | Cys-Tyr-Phe-Gln-Asn-Cys-Pro-Arg-Gly-NH2 (CYFQNCPRG-NH2; ends and bridges not checked) [Peptide 2] | – | did not inhibit | 59.6 | did not significantly change | did not significantly change | did not significantly change | 24.9 | 100 | 5 | 26.3 | 4 | –
5 | PALPEDGGSGAFPPGHFKDPKRLY [Peptide 1] | – | did not inhibit | – | did not significantly change | 30.3% | 77.4% | 30.0 | 100 | 17 | 24.3 | 2 | 123.9
